Measurements reported in patent US20190183960A1, “METHOD TO TREAT ASTHMA AND AIRWAY ALLERGY USING CYCLO TYROSINE-VALINE AND RELATED COMPOUNDS” (Chang Gung Biotechnology Corp., priority 2017, published 2019).

Tests used:
[1] = test system: IL-4 secretion by Th2 cells; experiment: IL-4 secretion by Th2 cells derived from BALB/c mice (ELISA); assay type: cell-based; conditions: 3 days; for secretion of pro-inflammatory IL-4 by Th2 cells: 2.3 μM, vs vehicle (0.5% DMSO)
Method: Given that Th2 cells mediate the immunological effects of asthma in humans and animals, we tested the effects of cyclo Tyr-Val on Th2 cells in culture. Naive T cells were isolated from BALB/c mice, and the cells were incubated in a culture medium containing anti-CD3 antibody (2 μg/ml), anti-CD28 antibody (2 μg/ml), anti-interferon-γ (IFN-γ) antibody (10 μg/ml), and IL-4 (10 ng/ml) in order to induce T cell differentiation into Th2 cells. The Th2 cells were treated for 3 days with 2.3 μM of cyclo Tyr-Val, cyclo alanine-isoleucine (cyclo Ala-Ile), cyclo alanine-leucine (cyclo Ala-Leu), cyclo tyrosine-leucine (cyclo Tyr-Leu), cyclo alanine-phenylalanine (cyclo Ala-Phe), or cyclo tyrosine-isoleucine (cyclo Tyr-Ile), and IL-4 protein level was measured using an enzyme-linked immunosorbent assay (ELISA) kit (eBioscience, USA).
(§1) We confirmed that cyclo Tyr-Val inhibits IL-4 secretion by Th2 cells. Th2 cells isolated from BALB/c or C57BL/6J mice were either left untreated or treated for 3 days with the vehicle (0.5% DMSO in saline) or various concentrations of cyclo Tyr-Val, followed by detection of IL-4 production using ELISA.
(§2) The effects of cyclo Tyr-Val on the secretion of other pro-inflammatory cytokines were investigated. […] As shown in FIGS. 4A-4C, cyclo Tyr-Val inhibited not only the secretion of IL-4, but also that of IL-5 and IL-13.

[2] = test system: IL-4 secretion by Th2 cells; experiment: IL-4 secretion by Th2 cells derived from C57BL/6J mice (ELISA); assay type: cell-based; conditions: 3 days
Text: as §1

[3] = test system: IL-13 secretion by Th2 cells; experiment: IL-13 secretion by Th2 cells derived from BALB/c mice (ELISA); assay type: cell-based; conditions: 0.25 μM, 3 days
Text: as §2

[4] = test system: IL-5 secretion by Th2 cells; experiment: IL-5 secretion by Th2 cells derived from BALB/c mice (ELISA); assay type: cell-based; conditions: 0.25 μM, 3 days
Text: as §2

Th2 cells = experiment: Viability of Th2 cells (WST-1 kit); assay type: cell-based, BALB/c mice; conditions: 0.018-285.932 μM, 3 days
Method: Experiments were performed to examine the effects of cyclo Tyr-Val on cell viability. Th2 cells isolated from BALB/c mice were either left untreated or treated for 3 days with the vehicle (0.5% DMSO in saline) or cyclo Tyr-Val at a concentration of 0.018, 0.091, 0.457, 2.287, 11.438, 57.186, or 285.932 μM. The viability of these cells was assessed using the WST-1 kit (Roche, Switzerland) according to the manufacturer's instructions.

[5] = test system: OVA-induced asthmatic mice; experiment: Treatment after establishment of OVA-induced AHR, comparison with dexamethasone; assay type: in vivo, BALB/c mice; conditions: IP 11.304 nmol/kg per day, day 28 to 34, after establishment of AHR
Method: In this example, the anti-asthmatic effect of cyclo Tyr-Val was compared with those of dexamethasone, a pharmaceutical drug conventionally used to treat asthma. OVA-induced asthmatic mice (BALB/c) were established according to the method described in Example 2. The mice were treated with 2% OVA using a nebulizer on day 30 and 33 and were intraperitoneally treated with the vehicle (0.5% DMSO in saline) or cyclo Tyr-Val (at a dose of 11.304 nmol/kg of body weight per day) on day 28 to 34, followed by measurement of AHR, total cell count in BALF, and eosinophil count in BALF. Another group of OVA-induced asthmatic mice that were treated orally with dexamethasone (at a dose of 3 mg/kg of body weight per day) on day 28 to 34 were used as a positive control.

[6] = test system: OVA-induced asthmatic mice; experiment: Mode of administration (IP, inhalation, oral) in OVA-induced asthmatic mice; assay type: in vivo, BALB/c mice; conditions: 11.304 nmol/kg per day, 7 days
Method: This example illustrates the effects of the mode of administration of cyclo Tyr-Val on asthmatic mice. OVA-induced asthmatic mice (BALB/c) were established according to the method described in Example 2. On day 21, the mice were treated intraperitoneally (IP), by inhalation (IH), or orally with cyclo Tyr-Val (at a dose of 11.304 nmol/kg of body weight per day) for 7 days, followed by assessment of AHR, total cell count in BALF, and eosinophil count in BALE OVA-induced asthmatic mice that were administered daily with the vehicle (0.5% DMSO in saline) intraperitoneally were used as control. As shown in FIGS. 9A-9C, treatment of OVA-induced asthmatic mice with cyclo Tyr-Val for 7 days via intraperitoneal injection, inhalation, or the oral route reduced AHR, total BALF cell count, and BALF eosinophil accumulation, compared with the vehicle-treated group.

[7] = Blood biochemical parameters (hepatic and renal functions) in mice; assay type: in vivo; conditions: IP 11.304 nmol/kg
Method: The effects of cyclo Tyr-Val treatment on hepatic and renal functions in mice were evaluated to determine if the compound produces toxic side effects. For these experiments, saline-treated mice (control group) or OVA-induced asthmatic mice were intraperitoneally treated with the vehicle (0.5% DMSO in saline) or cyclo Tyr-Val (at a dose of 11.304 nmol/kg), followed by measurement of blood biochemical parameters, including levels of aspartate transaminase (AST), alanine transaminase (ALT), total bilirubin (T-BIL), albumin (ALB), blood urea nitrogen (BUN), creatinine (CREA), and uric acid (UA). The blood biochemical parameters were monitored using a Hitachi 7080 biochemical analyzer (Hitachi, Japan).

[8] = test system: OVA-induced asthmatic mice; experiment: OVA-induced airway hyperresponsiveness (Penh, whole-body plethysmography, methacholine); assay type: in vivo, BALB/c mice; conditions: IP 0.11304-113.04 nmol/kg per day, day 21 to 27, methacholine 0-40 mg/ml
Method: Given that asthma is characterized by hyperresponsiveness to airway stimulants, we examined the effect of cyclo Tyr-Val on AHR in the OVA-induced asthmatic mice stimulated with the exemplary antigen OVA and methacholine (Mch). BALB/c mice were treated intraperitoneally with 50 μg of OVA (Sigma, USA) mixed with 0.8 mg of aluminum hydroxide (Thermo Fischer Scientific, USA) on day 0, 1, 2, and 14, and treated with 2% OVA for 20 minutes using a nebulizer (Pulmo-Aide 5650D; DeVilbiss, USA) on day 14, 17, 21, 24, and 27. The OVA-induced asthmatic mice were intraperitoneally treated with the vehicle (0.5% DMSO in saline) or cyclo Tyr-Val at a dose of 0.11304, 1.1304, 11.304, or 113.04 nmol/kg of body weight per day on day 21 to 27. Airway resistance (Penh) was measured using a whole-body plethysmography (WBP) chamber (Buxco Electronics, USA) after stimulation with methacholine at doses of 0, 10, 20, 30, and 40 mg/ml.

[9] = test system: OVA-induced asthmatic mice; experiment: Serum OVA-specific antibodies in OVA-induced asthmatic mice (ELISA); assay type: in vivo, BALB/c mice; conditions: IP 0.11304-113.04 nmol/kg per day, day 21 to 27
Text: (§3) Given that asthma is characterized by accumulation of immune cells including eosinophils in lung tissues, we studied the effects of cyclo Tyr-Val on BALF cell count, pro-inflammatory cytokine secretion, and antibody production. OVA-induced asthmatic mice (BALB/c) were established according to the method described in Example 2. After the mice were intraperitoneally treated with the vehicle (0.5% DMSO in saline) or cyclo Tyr-Val at a dose of 0.11304, 1.1304, 11.304, or 113.04 nmol/kg of body weight per day on day 21 to 27, BALF and serum were collected. Total cell count in BALF was determined using a hemocytometer; eosinophils were counted after isolation using Cytospin. Protein levels of IL-4, IL-5, and IL-13 in BALF were determined using ELISA. Serum protein levels of OVA-specific antibodies, including IgE, IgG1, and IgG2a, were determined using ELISA (eBioscience).

[10] = test system: OVA-induced asthmatic mice; experiment: BALF total cell and eosinophil count in OVA-induced asthmatic mice; assay type: in vivo, BALB/c mice; conditions: IP 0.11304-113.04 nmol/kg per day, day 21 to 27
Text: as §3

[11] = test system: OVA-induced asthmatic mice; experiment: IL-4, IL-5, IL-13 protein levels in BALF of OVA-induced asthmatic mice (ELISA); assay type: in vivo, BALB/c mice; conditions: IP 0.11304-113.04 nmol/kg per day, day 21 to 27
Text: as §3

In the case of `CC(C)CC1NC(=O)C(Cc2ccc(O)cc2)NC1=O` (stereo not shown) [cyclo Tyr-Leu, cyclo tyrosine-leucine], the “secretion of pro-inflammatory IL-4 by Th2 cells” value (“secretion … by Th2 cells” below) [1] is reported as “inhibited IL-4 to some extent”.
For `CC(C)C[C@@H]1NC(=O)[C@H](C)NC1=O` [cyclo Ala-Leu, cyclo alanine-leucine, reference compound], the “secretion … by Th2 cells” value [1] was “failed to inhibit IL-4 secretion”.
For `CC(C)C1NC(=O)C(Cc2ccc(O)cc2)NC1=O` (stereo not shown) [cyclo Tyr-Val, cyclo tyrosine-valine], the IC50 ([2]; Mus musculus, 72 h, Th2 cells from C57BL/6J mice, read-out: IC50, inhibition of IL-4 secretion) was 0.0451 µM, the IC90 ([2]; Mus musculus, 72 h, Th2 cells from C57BL/6J mice, read-out: IC90, inhibition of IL-4 secretion) was 0.357 µM and the “IL-4 secretion, dose dependence” value ([2]; various concentrations, C57BL/6J Th2 cells) was “inhibited IL-4 secretion in a dose-dependent manner”. For the same compound, the “secretion of IL-13” value [3] was “inhibited”, the “secretion of IL-5” value [4] was “inhibited” and the “cytotoxic effects on cultured Th2 cells (viability)” value (Th2 cells) was “no cytotoxic effects”. The AHR [5] was “significantly reduced”, the BALF eosinophil accumulation [5] was “significantly reduced” and the “BALF total cell count” value [5] was “significantly reduced”. The “secretion of IL-4” value ([1]; 0.25 μM) was “inhibited”, the “secretion … by Th2 cells” value [1] was “significantly inhibited” and the IC50 ([1]; Mus musculus, 72 h, Th2 cells from BALB/c mice, read-out: IC50, inhibition of IL-4 secretion) was 0.0264 µM. For the same compound, the IC90 ([1]; Mus musculus, 72 h, Th2 cells from BALB/c mice, read-out: IC90, inhibition of IL-4 secretion) was 0.252 µM, the “IL-4 secretion, dose dependence” value ([1]; various concentrations, BALB/c Th2 cells) was “inhibited IL-4 secretion in a dose-dependent manner” and the AHR ([6]; inhalation) was “reduced”. The BALF eosinophil accumulation ([6]; inhalation) was “reduced”, the “total BALF cell count” value ([6]; inhalation) was “reduced” and the AHR ([6]; intraperitoneal injection) was “reduced”. The BALF eosinophil accumulation ([6]; intraperitoneal injection) was “reduced”, the “total BALF cell count” value ([6]; intraperitoneal injection) was “reduced” and the AHR ([6]; oral route) was “reduced”. The BALF eosinophil accumulation ([6]; oral route) was “reduced”, the “total BALF cell count” value ([6]; oral route) was “reduced” and the ALB ([7]; OVA-induced asthmatic mice) was 2.737 ± 0.322 g/dL. The ALT ([7]; OVA-induced asthmatic mice) was 26.673 ± 2.279 U/l, the AST ([7]; OVA-induced asthmatic mice) was 69.718 ± 4.115 U/l and the BUN ([7]; OVA-induced asthmatic mice) was 25.864 ± 2.638 mg/dL. It also gave a CREA ([7]; OVA-induced asthmatic mice) of 0.250 ± 0.078 mg/dL, a T-BIL ([7]; OVA-induced asthmatic mice) of 26.508 ± 2.454 µg/dL and a UA ([7]; OVA-induced asthmatic mice) of 2.690 ± 0.275 mg/dL. For the same compound, the “hepatic or renal functions” value ([7]; control and OVA-induced asthmatic mice) was “did not significantly affect”, the ALB ([7]; control mice) was 2.669 ± 0.480 g/dL and the ALT ([7]; control mice) was 26.283 ± 2.813 U/l. The AST ([7]; control mice) was 70.775 ± 3.056 U/l, the BUN ([7]; control mice) was 26.588 ± 2.756 mg/dL and the CREA ([7]; control mice) was 0.236 ± 0.124 mg/dL. For the same compound, the T-BIL ([7]; control mice) was 26.169 ± 3.536 µg/dL, the UA ([7]; control mice) was 2.979 ± 0.412 mg/dL and the “OVA-induced AHR (airway resistance, Penh)” value [8] was “inhibited OVA-induced AHR in a dose-dependent manner”. The “OVA-specific IgE production in sera” value [9] was “dose-dependently reduces”, the “OVA-specific IgG1 production in sera” value [9] was “dose-dependently reduces” and the “OVA-specific IgG2a production in sera” value [9] was “dose-dependently reduces”. The “OVA-induced cell infiltration in BALF (total cell count)” value [10] was “reduced”, the “OVA-induced eosinophilia in BALF” value [10] was “reduced” and the “OVA-induced secretion of IL-4 in BALF” value [11] was “reduced”. For the same compound, the “OVA-induced secretion of IL-5 in BALF” value [11] was “reduced” and the “OVA-induced secretion of IL-13 in BALF” value [11] was “reduced”.
For `CC[C@H](C)[C@@H]1NC(=O)[C@H](C)NC1=O` [cyclo Ala-Ile, cyclo alanine-isoleucine, reference compound], the “secretion … by Th2 cells” value [1] was “failed to inhibit IL-4 secretion”.
In the case of `CC[C@H](C)[C@@H]1NC(=O)[C@H](Cc2ccc(O)cc2)NC1=O` [cyclo Tyr-Ile, cyclo tyrosine-isoleucine, reference compound], the “secretion … by Th2 cells” value [1] is reported as “failed to inhibit IL-4 secretion”.
In the case of `CC1NC(=O)C(Cc2ccccc2)NC1=O` (stereo not shown) [cyclo Ala-Phe, cyclo alanine-phenylalanine, reference compound], the “secretion … by Th2 cells” value [1] is reported as “failed to inhibit IL-4 secretion”.
